From US8455528B2, “Imidazole derivatives useful as inhibitors of FAAH” (Merck Sharp & Dohme Corp., priority 2008, dated 2013)

Columns and labels:
Human FAAH = target: T1, Human FAAH (Homo sapiens, UniProt O00519); assay: Human FAAH whole cell assay (FAAH_CHO cells); type: cell-based; conditions: FAAH inhibition, whole CHO cells expressing human FAAH
T1 construct: The full length FAAH was subcloned into the mammalian expression vector, pcDEF.neo; expressed in transfected cells
T1 sequence (O00519 1-579): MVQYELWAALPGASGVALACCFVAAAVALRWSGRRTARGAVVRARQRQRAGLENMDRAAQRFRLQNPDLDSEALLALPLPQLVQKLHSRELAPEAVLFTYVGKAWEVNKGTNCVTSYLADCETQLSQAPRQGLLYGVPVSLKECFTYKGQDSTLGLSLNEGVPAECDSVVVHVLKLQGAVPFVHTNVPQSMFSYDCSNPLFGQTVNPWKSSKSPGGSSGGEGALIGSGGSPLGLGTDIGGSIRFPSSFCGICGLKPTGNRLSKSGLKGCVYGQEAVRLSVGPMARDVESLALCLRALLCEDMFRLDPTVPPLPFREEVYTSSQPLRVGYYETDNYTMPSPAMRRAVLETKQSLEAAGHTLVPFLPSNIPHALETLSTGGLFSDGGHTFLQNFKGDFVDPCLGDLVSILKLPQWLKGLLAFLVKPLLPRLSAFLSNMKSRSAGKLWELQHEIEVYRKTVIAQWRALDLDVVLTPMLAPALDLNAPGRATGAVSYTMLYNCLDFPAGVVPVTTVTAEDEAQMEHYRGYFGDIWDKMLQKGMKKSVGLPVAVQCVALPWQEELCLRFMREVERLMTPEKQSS
Excerpt: To assist in assay development stable cell lines for human, murine and rat full length FAAH were developed. Human FAAH cDNA (Accession No: NM_001441.1) was purchased from Origene (Rockville, Md.). The full length FAAH was subcloned into the mammalian expression vector, pcDEF.neo, using XbaI and EcoRI restriction sites and used for stable cell line generation.
(§1) Murine (accession number NM_010173) and Rat FAAH (accession number NM_024132) was amplified by reverse transcriptase polymerase chain reaction (RT-PCR) from brain cDNA (BD Biosciences, San Jose, Calif.) using primers 1 and 2 or primers 1 and 3 respectively (see Table). The resulting PCR product was ligated into pCR4 TOPO and DNA sequence confirmed. The full length murine FAAH was subcloned into the mammalian expression vector, pcDEFneo using either EcoRI (murine) or KpnI and EcoRI (rat) restriction sites. Chinese hamster ovary cells (CHO) were transfected following manufacturers protocol (AMAXA). Forty eight hours post transfection, cells were trypsinized and transferred to 96 well plates in Iscove's DMEM media supplemented with 2 mM Glutamine, 10% fetal calf serum, 1 mg/ml geneticin and HT Supplement (0.1 mM sodium hypoxanthine, 0.016 mM thymidine) in order to isolate single clones. Following selection in geneticin, individual clones were selected and FAAH activity was assessed using a whole cell fluorescent anandamide assay, modified from Ramarao et al (2005). Following removal of tissue culture media cells were dislodged following addition of Cellstripper (Mediatech, Inc. Manassas, Va.) and transferred to 96 well black clear bottom assay plate, centrifuged at 1,000 rpm for 3 mins and media removed and replaced with assay buffer (50 mM Tris pH8.0, 1 mM EDTA, 0.1% fatty acid free BSA). The reaction was initiated by addition of fluorescent substrate, AMC Arachidonoyl Amide (Cayman Chemical, Ann Arbor, Mich.) to 1 μM and reaction allowed to proceed for 2 hours at room temperature. Release of fluorescence was monitored in a CytoFluor Multiplate Reader. Cells expressing the highest amount of FAAH activity were selected for study with FAAH inhibitors.
(§2) (American Radiolabeled Chemicals; 1 mCi/ml) with FAAH (Life Sciences (1995), 56, 1999-2005 and Journal of Pharmacology and Experimented Therapeutics (1997), 283, 729-734), Analytical. Biochemistry (2003), 318, 270-5. In addition, routine assays were performed monitoring hydrolysis of arachidonyl-7-amino-4-methylcoumarin amide (AAMCA) by following increase in fluorescence upon release of 7-amino 4-methyl coumarin (λEX=355 nm, (λEM=460 nm). Analytical. Biochemistry (2005). 343, 143-51
(§3) Assays are performed on either cell lysate or microsome fractions prepared as described or in whole cell format employing either the fluorescent substrate AAMCA (Cayman chemical, Ann Arbor, Mich.) or ^3H-anandmaide ([ETHANOLAMINE-1-3H] American Radiolabeled Chemicals; 1 mCi/ml). The cell lysate or microsome assay is performed in Costar black wall, clear bottom plates by adding FAAH_CHO (whole cell, cell lysate or microsome) in assay buffer (50 mM Phosphate, pH 8.0, 1 mM EDTA, 200 mM KCl, 0.2% glycerol, 0.1% fatty acid free BSA) to each well, followed by either DMSO or compound and allowed to incubate at 22-25° C. for fifteen minutes. AAMCA substrate was used to achieve a final concentration of 1 μM and reaction allowed to proceed at room temperature for 1-3 hours. Fluorescent release as a measure of FAAH activity was monitored by reading the plate in a CytoFluor Multiplate Reader ([…]). Whole cell assay is conducted with cells harvested after rinsing tissue culture flasks three times with Ca^++Mg^++ free PBS, incubating for 10 min in Enzyme free dissociation media and centrifuging for 5 minutes at 1,000 rpm in table top centrifuge. Cells are resuspended in assay buffer at desired cell number in (4×10^4 cells/assay in 96-well format; 1×10^4 cells/assay in 384-well format) and assayed as described.

Rat FAAH = target: T2, Rat FAAH (Rattus norvegicus, UniProt P97612); assay: Rat FAAH whole cell assay (FAAH_CHO cells); type: cell-based; conditions: FAAH inhibition, whole CHO cells expressing rat FAAH
T2 construct: expressed in transfected cells
T2 sequence (P97612 1-579): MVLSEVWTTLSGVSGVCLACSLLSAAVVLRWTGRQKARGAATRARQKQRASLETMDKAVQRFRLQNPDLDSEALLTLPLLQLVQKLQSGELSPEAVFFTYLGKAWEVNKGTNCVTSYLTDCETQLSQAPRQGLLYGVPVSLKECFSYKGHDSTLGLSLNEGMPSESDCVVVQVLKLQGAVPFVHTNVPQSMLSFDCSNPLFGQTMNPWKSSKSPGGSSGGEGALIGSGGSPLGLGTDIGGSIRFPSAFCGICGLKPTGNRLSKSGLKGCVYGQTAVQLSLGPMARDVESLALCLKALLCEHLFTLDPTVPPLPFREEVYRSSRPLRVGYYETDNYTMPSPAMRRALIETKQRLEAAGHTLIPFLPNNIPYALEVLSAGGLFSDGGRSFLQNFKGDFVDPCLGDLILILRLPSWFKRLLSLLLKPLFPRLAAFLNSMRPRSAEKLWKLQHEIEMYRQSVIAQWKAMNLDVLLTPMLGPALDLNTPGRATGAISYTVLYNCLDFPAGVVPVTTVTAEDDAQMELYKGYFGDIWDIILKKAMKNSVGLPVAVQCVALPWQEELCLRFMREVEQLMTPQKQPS
Excerpt: as §1, §2, §3

Row | IC50 (Human FAAH) [nM] | IC50 (Rat FAAH) [nM] | Compound
1 | 48.6 | 63.4 | Cn1c(-c2ccccn2)nc(-c2ccc(-c3nnco3)cc2)c1Sc1ccc(Cl)cn1 [Ex 36, 5-Chloro-2-({1-methyl-4-[4-(1,3,4-oxadiazol-2-yl)phenyl]-2-pyridin-2-yl-1H-imidazol-5-yl}thio)pyridine]
2 | 480 | 105 | CC(C)c1nc(-c2ccc(S(C)(=O)=O)cc2)c(Sc2ccc(Cl)cc2)n1C [Ex 29, 5-[(4-Chlorophenyl)thio]-2-isopropyl-1-methyl-4-[4-(methylsulfonyl)phenyl]-1H-imidazole]
3 | 3000 | 702 | CS(=O)(=O)c1ccc(-c2nc(C3CCC3)[nH]c2Sc2ccc(Cl)cc2)cc1 [Ex 13]
4 | 2980 | 1210 | Cn1cnc(-c2ccc(C#N)cc2)c1Sc1ccc(Cl)cc1 [Ex 33, 4-{5-[(4-chlorophenyl)thio]-1-methyl-1H-imidazol-4-yl}benzonitrile]
5 | 67.8 | 59.6 | Cn1c(-c2ccccn2)nc(-c2ccc(C(O)C(F)F)cc2)c1Sc1ccc(Cl)cc1 (stereo not drawn) [Ex 57, 1-(4-{5-[(4-Chlorophenyl)thio]-1-methyl-2-pyridin-2-yl-1H-imidazol-4-yl}phenyl)-2,2-difluoroethanol]
6 | 52.2 | 31.9 | Cn1c(-c2ccccn2)nc(-c2ccc(-n3ccnn3)cc2)c1Sc1ccc(Cl)cc1 [Ex 66]
7 | 107 | 146 | Cn1c(C2CCC2)nc(-c2ccc(S(C)(=O)=O)cc2)c1Sc1ccc(Cl)cc1 [Ex 14]
8 | 84.8 | 30.1 | Cn1c(-c2ccccc2)nc(-c2ccc(C#N)cc2)c1Sc1ccc(Cl)cc1 [Ex 2, 4-{5-[(4-Chlorophenyl)thio]-1-methyl-2-phenyl-1H-imidazol-4-yl}benzonitrile]
9 | 1000 | 870 | Cn1c(-c2ccccn2)nc(-c2ccc(N)cc2)c1Sc1ccc(Cl)cc1 [Ex 98, 4-{5-[(4-Chlorophenyl)thio]-1-methyl-2-pyridin-2-yl-1H-imidazol-4-yl}aniline]
